Assays:
Test in all cases: relative viability (nuclei count vs DMSO), 5 days (fraction); higher = more cells survive
[1] = tested on: A549
Summary of the method: (§1)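 Each reported value is a median over duplicate plates. It expresses relative viability: treated-well nuclei count divided by vehicle-well nuclei count. Lung cancer cell lines in 1536-well plates were dosed by pin tool a day after seeding, alone with one drug or with a fixed anchor-drug dose plus five library-drug doses (not always all listed) in √10 steps, and nuclei were counted after 5 days.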

[2] = tested on: Calu-6
Summary of the method: as §1

[3] = tested on: NCI-H520
Summary of the method: as §1

[4] = tested on: NCI-H1703
Summary of the method: as §1

[5] = tested on: NCI-H1299
Summary of the method: as §1

[6] = tested on: LK-2
Summary of the method: as §1

[7] = tested on: NCI-H522
Summary of the method: as §1

[8] = tested on: NCI-H1355
Summary of the method: as §1

[9] = tested on: IA-LM
Summary of the method: as §1

[10] = tested on: COR-L 105
Summary of the method: as §1

[11] = tested on: LCLC-103H
Summary of the method: as §1

[12] = tested on: NCI-H1648
Summary of the method: as §1

[13] = tested on: EBC-1
Summary of the method: as §1

[14] = tested on: NCI-H1623
Summary of the method: as §1

## CCN(CC)CCCCNc1ncc2cc(-c3cc(OC)cc(OC)c3)c(NC(=O)NC(C)(C)C)nc2n1 + O=C(c1cc(Cc2n[nH]c(=O)c3ccccc23)ccc1F)N1CCN(C(=O)C2CC2)CC1 [Olaparib] (partner 8 µM)
[1]; first compound 0.01 µM
  relative viability: 0.273
[1]; first compound 0.03162 µM
  relative viability: 0.367
[1]; first compound 0.1 µM
  relative viability: 0.318
[1]; first compound 0.3162 µM
  relative viability: 0.32
[1]; first compound 1 µM
  relative viability: 0.349
[2]; first compound 0.03162 µM
  relative viability: 0.583
[2]; first compound 0.1 µM
  relative viability: 0.627
[2]; first compound 0.3162 µM
  relative viability: 0.694
[2]; first compound 1 µM
  relative viability: 0.556
[3]; first compound 0.01 µM
  relative viability: 0.367
[3]; first compound 0.03162 µM
  relative viability: 0.377
[3]; first compound 0.1 µM
  relative viability: 0.318
[3]; first compound 0.3162 µM
  relative viability: 0.272
[3]; first compound 1 µM
  relative viability: 0.261
[4]; first compound 0.01 µM
  relative viability: 0.313
[4]; first compound 0.03162 µM
  relative viability: 0.421
[4]; first compound 0.1 µM
  relative viability: 0.52
[4]; first compound 0.3162 µM
  relative viability: 0.383
[4]; first compound 1 µM
  relative viability: 0.388
[5]; first compound 0.01 µM
  relative viability: 1.03
[5]; first compound 0.03162 µM
  relative viability: 0.991
[5]; first compound 0.1 µM
  relative viability: 1.01
[5]; first compound 0.3162 µM
  relative viability: 1.04
[5]; first compound 1 µM
  relative viability: 0.998
[6]; first compound 0.01 µM
  relative viability: 0.634
[6]; first compound 0.03162 µM
  relative viability: 0.547
[6]; first compound 0.1 µM
  relative viability: 0.714
[6]; first compound 0.3162 µM
  relative viability: 0.457
[6]; first compound 1 µM
  relative viability: 0.226
[7]; first compound 0.01 µM
  relative viability: 0.687
[7]; first compound 0.03162 µM
  relative viability: 0.544
[7]; first compound 0.1 µM
  relative viability: 0.708
[7]; first compound 0.3162 µM
  relative viability: 0.85
[7]; first compound 1 µM
  relative viability: 0.663
[8]; first compound 0.01 µM
  relative viability: 0.789
[8]; first compound 0.03162 µM
  relative viability: 0.719
[8]; first compound 0.1 µM
  relative viability: 0.853
[8]; first compound 0.3162 µM
  relative viability: 0.83
[8]; first compound 1 µM
  relative viability: 0.737
[9]; first compound 0.01 µM
  relative viability: 0.821
[9]; first compound 0.03162 µM
  relative viability: 0.88
[9]; first compound 0.1 µM
  relative viability: 0.946
[9]; first compound 0.3162 µM
  relative viability: 0.762
[9]; first compound 1 µM
  relative viability: 0.936
[10]; first compound 0.01 µM
  relative viability: 0.805
[10]; first compound 0.03162 µM
  relative viability: 0.62
[10]; first compound 0.1 µM
  relative viability: 0.73
[10]; first compound 0.3162 µM
  relative viability: 0.619
[10]; first compound 1 µM
  relative viability: 0.696
[11]; first compound 0.01 µM
  relative viability: 0.813
[11]; first compound 0.03162 µM
  relative viability: 0.788
[11]; first compound 0.1 µM
  relative viability: 0.888
[11]; first compound 0.3162 µM
  relative viability: 0.833
[11]; first compound 1 µM
  relative viability: 0.567
[12]; first compound 0.01 µM
  relative viability: 0.991
[12]; first compound 0.03162 µM
  relative viability: 0.767
[12]; first compound 0.1 µM
  relative viability: 0.781
[12]; first compound 0.3162 µM
  relative viability: 0.703
[12]; first compound 1 µM
  relative viability: 0.648
[13]; first compound 0.01 µM
  relative viability: 0.738
[13]; first compound 0.03162 µM
  relative viability: 0.684
[13]; first compound 0.1 µM
  relative viability: 0.779
[13]; first compound 0.3162 µM
  relative viability: 0.824
[13]; first compound 1 µM
  relative viability: 0.705

## O=c1cc(-c2cccc3c2Sc2ccccc2S3)oc(N2CCOCC2)c1 + O=C(c1cc(Cc2n[nH]c(=O)c3ccccc23)ccc1F)N1CCN(C(=O)C2CC2)CC1 [Olaparib] (partner 8 µM)
[1]; first compound 0.08 µM
  relative viability: 0.224
[1]; first compound 0.253 µM
  relative viability: 0.348
[1]; first compound 0.8 µM
  relative viability: 0.277
[1]; first compound 2.53 µM
  relative viability: 0.354
[1]; first compound 8 µM
  relative viability: 0.363
[2]; first compound 0.08 µM
  relative viability: 0.63
[2]; first compound 0.253 µM
  relative viability: 0.636
[2]; first compound 0.8 µM
  relative viability: 0.601
[2]; first compound 2.53 µM
  relative viability: 0.599
[2]; first compound 8 µM
  relative viability: 0.549
[3]; first compound 0.08 µM
  relative viability: 0.391
[3]; first compound 0.253 µM
  relative viability: 0.321
[3]; first compound 0.8 µM
  relative viability: 0.439
[3]; first compound 2.53 µM
  relative viability: 0.322
[3]; first compound 8 µM
  relative viability: 0.339
[4]; first compound 0.08 µM
  relative viability: 0.314
[4]; first compound 0.253 µM
  relative viability: 0.445
[4]; first compound 0.8 µM
  relative viability: 0.406
[4]; first compound 2.53 µM
  relative viability: 0.246
[4]; first compound 8 µM
  relative viability: 0.227
[5]; first compound 0.08 µM
  relative viability: 0.951
[5]; first compound 0.253 µM
  relative viability: 1.05
[5]; first compound 0.8 µM
  relative viability: 1.04
[5]; first compound 2.53 µM
  relative viability: 1.02
[5]; first compound 8 µM
  relative viability: 0.909
[6]; first compound 0.08 µM
  relative viability: 0.833
[6]; first compound 0.253 µM
  relative viability: 0.793
[6]; first compound 0.8 µM
  relative viability: 0.79
[6]; first compound 2.53 µM
  relative viability: 0.62
[6]; first compound 8 µM
  relative viability: 0.749
[7]; first compound 0.08 µM
  relative viability: 0.615
[7]; first compound 0.253 µM
  relative viability: 0.621
[7]; first compound 0.8 µM
  relative viability: 0.612
[7]; first compound 2.53 µM
  relative viability: 0.723
[7]; first compound 8 µM
  relative viability: 0.576
[8]; first compound 0.08 µM
  relative viability: 0.801
[8]; first compound 0.253 µM
  relative viability: 0.916
[8]; first compound 0.8 µM
  relative viability: 0.65
[8]; first compound 2.53 µM
  relative viability: 0.717
[8]; first compound 8 µM
  relative viability: 0.573
[9]; first compound 0.08 µM
  relative viability: 0.848
[9]; first compound 0.253 µM
  relative viability: 1.07
[9]; first compound 0.8 µM
  relative viability: 0.934
[9]; first compound 2.53 µM
  relative viability: 0.796
[9]; first compound 8 µM
  relative viability: 0.866
[10]; first compound 0.08 µM
  relative viability: 0.546
[10]; first compound 0.253 µM
  relative viability: 0.665
[10]; first compound 0.8 µM
  relative viability: 0.468
[10]; first compound 2.53 µM
  relative viability: 0.682
[10]; first compound 8 µM
  relative viability: 0.78
[11]; first compound 0.08 µM
  relative viability: 0.765
[11]; first compound 0.253 µM
  relative viability: 0.776
[11]; first compound 0.8 µM
  relative viability: 0.873
[11]; first compound 2.53 µM
  relative viability: 0.736
[11]; first compound 8 µM
  relative viability: 0.71
[12]; first compound 0.253 µM
  relative viability: 1.01
[12]; first compound 0.8 µM
  relative viability: 0.781
[12]; first compound 8 µM
  relative viability: 1.2
[13]; first compound 0.08 µM
  relative viability: 0.618
[13]; first compound 0.253 µM
  relative viability: 0.831
[13]; first compound 0.8 µM
  relative viability: 0.732
[13]; first compound 2.53 µM
  relative viability: 0.619
[13]; first compound 8 µM
  relative viability: 0.324

## O=c1cc(-c2cccc3c2Sc2ccccc2S3)oc(N2CCOCC2)c1 + CCNC(=O)c1noc(-c2cc(C(C)C)c(O)cc2O)c1-c1ccc(CN2CCOCC2)cc1 [Luminespib] (partner 0.01 µM)
[14]; first compound 0.08 µM
  relative viability: 0.615
[14]; first compound 0.253 µM
  relative viability: 0.589
[14]; first compound 0.8 µM
  relative viability: 0.472
[14]; first compound 2.53 µM
  relative viability: 0.411
[14]; first compound 8 µM
  relative viability: 0.495
[3]; first compound 0.08 µM
  relative viability: 0.223
[3]; first compound 0.253 µM
  relative viability: 0.231
[3]; first compound 0.8 µM
  relative viability: 0.215
[3]; first compound 2.53 µM
  relative viability: 0.205
[3]; first compound 8 µM
  relative viability: 0.231
[6]; first compound 0.08 µM
  relative viability: 0.184
[6]; first compound 0.253 µM
  relative viability: 0.184
[6]; first compound 0.8 µM
  relative viability: 0.151
[6]; first compound 2.53 µM
  relative viability: 0.22
[6]; first compound 8 µM
  relative viability: 0.176
[7]; first compound 0.08 µM
  relative viability: 0.999
[7]; first compound 0.253 µM
  relative viability: 1.03
[7]; first compound 0.8 µM
  relative viability: 1.21
[7]; first compound 2.53 µM
  relative viability: 1.13
[7]; first compound 8 µM
  relative viability: 1.08
[8]; first compound 0.08 µM
  relative viability: 0.847
[8]; first compound 0.253 µM
  relative viability: 0.641
[8]; first compound 0.8 µM
  relative viability: 0.722
[8]; first compound 2.53 µM
  relative viability: 0.73
[8]; first compound 8 µM
  relative viability: 0.605
[10]; first compound 0.08 µM
  relative viability: 0.701
[10]; first compound 0.253 µM
  relative viability: 0.762
[10]; first compound 0.8 µM
  relative viability: 0.705
[10]; first compound 2.53 µM
  relative viability: 0.671
[10]; first compound 8 µM
  relative viability: 1.02
[11]; first compound 0.08 µM
  relative viability: 0.878
[11]; first compound 0.253 µM
  relative viability: 1.17
[11]; first compound 0.8 µM
  relative viability: 1.05
[11]; first compound 2.53 µM
  relative viability: 0.959
[11]; first compound 8 µM
  relative viability: 0.792

## O=c1cc(N2CCOCC2)oc2c(-c3cccc4c3sc3ccccc34)cccc12 + Cc1nc(Nc2ncc(C(=O)Nc3c(C)cccc3Cl)s2)cc(N2CCN(CCO)CC2)n1 [Dasatinib] (partner 0.075 µM)
[14]; first compound 0.01 µM
  relative viability: 0.456
[14]; first compound 0.03162 µM
  relative viability: 0.517
[14]; first compound 0.1 µM
  relative viability: 0.402
[14]; first compound 0.3162 µM
  relative viability: 0.5
[14]; first compound 1 µM
  relative viability: 0.438
[3]; first compound 0.01 µM
  relative viability: 0.184
[3]; first compound 0.03162 µM
  relative viability: 0.201
[3]; first compound 0.1 µM
  relative viability: 0.231
[3]; first compound 0.3162 µM
  relative viability: 0.168
[3]; first compound 1 µM
  relative viability: 0.203
[6]; first compound 0.01 µM
  relative viability: 0.329
[6]; first compound 0.03162 µM
  relative viability: 0.289
[6]; first compound 0.1 µM
  relative viability: 0.338
[6]; first compound 0.3162 µM
  relative viability: 0.339
[6]; first compound 1 µM
  relative viability: 0.279
[7]; first compound 0.01 µM
  relative viability: 1.01
[7]; first compound 0.03162 µM
  relative viability: 0.915
[7]; first compound 0.1 µM
  relative viability: 0.797
[7]; first compound 0.3162 µM
  relative viability: 0.859
[7]; first compound 1 µM
  relative viability: 0.745
[8]; first compound 0.01 µM
  relative viability: 0.789
[8]; first compound 0.03162 µM
  relative viability: 0.692
[8]; first compound 0.1 µM
  relative viability: 0.695
[8]; first compound 0.3162 µM
  relative viability: 0.731
[8]; first compound 1 µM
  relative viability: 0.682
[10]; first compound 0.01 µM
  relative viability: 0.316
[10]; first compound 0.03162 µM
  relative viability: 0.327
[10]; first compound 0.1 µM
  relative viability: 0.314
[10]; first compound 0.3162 µM
  relative viability: 0.372
[10]; first compound 1 µM
  relative viability: 0.304
[11]; first compound 0.01 µM
  relative viability: 0.491
[11]; first compound 0.03162 µM
  relative viability: 0.412
[11]; first compound 0.1 µM
  relative viability: 0.539
[11]; first compound 0.3162 µM
  relative viability: 0.449
[11]; first compound 1 µM
  relative viability: 0.401

— the supplement of paper PMC10307832
